We go through 23 molecules from patent publication US20250179061A1 (SIRONAX LTD., priority 2022, published 2025).

Molecules are shown by their SMILES. pIC50: −log10 of the molar value. Like-named read-outs stand apart in the source and are kept apart here.

This assay relates to HT-29 cells. The assay can be described thus: HT-29 necroptosis cell viability assay (TNF-α/SMAC mimetic/zVAD-FMK, CellTiter-Glo). The class given is cell-based. The following applies: Homo sapiens. The procedure:
Compounds 1-702 of the disclosure were tested for biological activity, following the experimental procedures described below.
• Cell line: HT-29 (ATCC® HTB-38™) • Culture medium: McCOY's 5A, Gibco, Cat No. 16600-082 • FBS, Gibco, Cat No. 10099-141 C • Trypsin: Gibco, Cat No. 25200-056 • DMSO: Sigma, Cat No. 67-68-5, 1L • Assay plate: Corning #3903 • Compound dilution plate: Corning #3357 • Inducers: TNFα, GenScript, Cat No. Z01001-50, • SmacM, Cat. No., HY-15989, MedChemExpress (MCE) • Z_VAD FMK, TargetMol, T6013 • Cell Titer-Glo® Luminescent Cell Viability Assay Kit: Promega, Cat No. G7573 • EnVision: PerkinElmer, 2105-0010
• 1. HT-29 cells were checked every day to make sure that they were healthy and growing as expected. They were subjected to sub-culturing when they were approximately 80% confluent. • 2. The culture medium, McCOY's 5A medium (Gibco, Cat No. 16600-082) with 10% fetal bovine serum or FBS (Gibco, Cat No. 10099-141C), was pre-warmed in a 37° C. water bath for at least 30 min. • 3. When the cells had reached a desired level of confluency of 80% in a T75 flask, the medium was aspirated, and the cells were washed with warm phosphate buffered saline or PBS two times. • 4. 2-3 ml fresh warm trypsin (Gibco, Cat No. 25200-056) solution was added to the washed cells. The flask with the cells was transferred to a 37° C. incubator. • 5. After 5 minutes, the side of the flask was tapped, and the flask was examined under a microscope for detachment of the cells to the flask. If necessary, the cells were kept in the incubator for an additional 5-10 minutes, with occasional tapping, until lifting was complete. • 6. The trypsin reaction was neutralized by transferring 6-9 ml cell culture medium to sterile 15 ml conical tubes, and by centrifuging the cell culture at 300×g for 7 minutes to pellet the cells (supernatant decanted). • 7. The cells were resuspended in fresh cell culture medium and the cell counting was performed using a hemocytometer. • 8. 100 μl of the resuspended cell culture medium containing ˜5,000 cells were transferred into each well of the sterile 96-well cell culture plate (Corning 3903) and cultured overnight at 37° C. with 5% CO2.
• 1. All test compounds were dissolved in DMSO (Dimethyl sulfoxide) to create a 20 mM stock. • 2. 3 μl of 20 mM stock of each compound was mixed with 27 μl DMSO, and the compound solution was further diluted at a titration ratio of 1:3 (20 μl compound solution+40 μl DMSO) till the 10 points end. • 3. All culture medium was removed from assay plates filled with HT-29 cell cultures. The cells were then washed with 1 PBS, and resuspsended in fresh, FBS-free McCOY's 5A medium containing a cocktail of TNF-α (10 ng/ml), a SMAC mimetic compound (6 μM) and Z-VAD-fluoromethylketone or zVAD-FMK (10 μM) to stimulate the HT-29 cells to increase RIP1 kinase levels and necroptosis. • 4. 0.5 μL of the diluted compound solution was added to the corresponding 96-well assay plates. • 5. The assay plates were incubated for 20 hours at 37° C. with 5% CO2.
• 1. The CellTiter-Glo® Luminescent Cell Viability Assay was employed to detect the ATP levels of viable HT-29 cells. • 2. The CellTiter-Glo® buffer and the lyophilized substrate were equilibrated to room temperature prior to use. • 3. The CellTiter-Glo® substrate was resuspended with CellTiter-Glo® buffer, then mixed by gently vortexing to obtain a homogeneous solution. • 4. 20 μl of the enzyme/substrate mixture was transferred by multi-channel pipetting into 96-well assay plates. • 5. The assay plates were placed on an orbital shaker and the contents were shaken for 3 minutes to induce cell lysis. • 6. The assay plates were incubated at room temperature for 10 minutes to stabilize the luminescent signal. • 7. The luminescence signals were read and recorded with EnVision. • 8. The geometric mean IC50 values were calculated from 10 points response dose with duplicates. […]
A general note: Cellular ATP, detected with luciferase, serves as a proxy for viable cell number.

[1] abbreviates: HT-29 cells stimulated with TNF-α (10 ng/ml), SMAC mimetic (6 μM) and zVAD-FMK (10 μM), 20 hours, CellTiter-Glo ATP luminescence, geometric mean IC50 from 10 points, read-out: Activity.
Setting [2] is: HT-29, HT-29 cells, necroptosis induced by TNF-α/SMAC mimetic/zVAD-FMK, CellTiter-Glo, read-out: Activity (IC50 class).
[3] abbreviates: HT-29, HT-29 necroptosis cell viability, IC50 class symbols, read-out: Activity.
[4] abbreviates: HT-29, HT-29 necroptosis cell viability assay, class symbols for IC50, read-out: Activity.

Take `Cn1nc(C(N)=O)cc1Oc1ccc(-n2nc3n(c2=O)C(c2ccccc2)CC3)cc1F` (centres unmarked) [Example 29, 5-(2-fluoro-4-(3-oxo-5-phenyl-6,7-dihydro-3H-pyrrolo[2,1-c][1,2,4]triazol-2(5H)-yl)phenoxy)-1-methyl-1H-pyrazole-3-carboxamide]: the pIC50 under setting [1] was over 7.00.

With `N#CC1CC(Oc2ncccc2Cc2ccc(-n3ncn(Cc4c(F)cccc4F)c3=O)cc2)C1` (centres unmarked) [Example 684, 3-((3-(4-(4-(2,6-difluorobenzyl)-5-oxo-4,5-dihydro-1H-1,2,4-triazol-1-yl)benzyl)pyridin-2-yl)oxy)cyclobutane-1-carbonitrile], the pIC50 under setting [2] was 6.00 to 7.00.

On to `CC(C)(C)OC(=O)N1CCC12CN(c1cc(Oc3ccc(-n4ncn(Cc5c(F)cccc5F)c4=O)cc3)ccn1)C2` [Example 317, tert-butyl 6-(4-(4-(4-(2,6-difluorobenzyl)-5-oxo-4,5-dihydro-1H-1,2,4-triazol-1-yl)phenoxy)pyridin-2-yl)-1,6-diazaspiro[3.3]heptane-1-carboxylate], for which the pIC50 under setting [3] is 5.00 to 6.00.

Regarding `Cc1nc(Br)sc1Oc1ccc(-n2ncn(Cc3c(F)cccc3C#N)c2=O)cc1F` [Example 7, 2-((1-(4-((2-bromo-4-methylthiazol-5-yl)oxy)-3-fluorophenyl)-5-oxo-1,5-dihydro-4H-1,2,4-triazol-4-yl)methyl)-3-fluorobenzonitrile], the pIC50 under setting [1] was over 7.00.

Take `O=c1n(Cc2c(F)cccc2F)cnn1-c1ccc(Oc2ccnc(N3CCC34CNC4)c2)cc1` [Example 379, 2-(4-((2-(1,6-diazaspiro[3.3]heptan-1-yl)pyridin-4-yl)oxy)phenyl)-4-(2,6-difluorobenzyl)-2,4-dihydro-3H-1,2,4-triazol-3-one]: under setting [3], the pIC50 was 6.00 to 7.00.

Turning to `Cc1nc(C#N)sc1Oc1ccc(-n2ncn(Cc3cnccc3Cl)c2=O)cc1F` [Example 38, 5-(4-(4-((4-chloropyridin-3-yl)methyl)-5-oxo-4,5-dihydro-1H-1,2,4-triazol-1-yl)-2-fluorophenoxy)-4-methylthiazole-2-carbonitrile], under setting [1], the pIC50 is over 7.00.

As for `Cn1nc(C(N)=O)cc1Oc1ccc(-n2nc3n(c2=O)[C@H](c2ccccc2)CC3)cc1F` (single isomer, unassigned) [Example 30], the pIC50 under setting [1] is over 7.00.

Regarding `Cc1nc(C(N)=O)sc1Oc1ncc(-n2nc3n(c2=O)[C@@H](c2ccccc2)CC3)cc1F` (single isomer, unassigned) [Example 639], the pIC50 under setting [2] is 6.00 to 7.00.

On to `COC1(C#N)CN(c2cc(Oc3ccc(-n4ncn(Cc5c(F)cccc5F)c4=O)cc3)ccn2)C1` [Example 366, 1-(4-(4-(4-(2,6-difluorobenzyl)-5-oxo-4,5-dihydro-1H-1,2,4-triazol-1-yl)phenoxy)pyridin-2-yl)-3-methoxyazetidine-3-carbonitrile], for which the pIC50 under setting [3] was over 7.00.

In the case of `O=c1n(Cc2c(F)cccc2F)cnn1-c1ccc(S(=O)(=O)c2ccnc(N3CCC3)c2)cc1` [Example 350, 2-(4-((2-(azetidin-1-yl)pyridin-4-yl)sulfonyl)phenyl)-4-(2,6-difluorobenzyl)-2,4-dihydro-3H-1,2,4-triazol-3-one], the pIC50 under setting [3] is over 7.00.

In the case of `Cc1ncsc1Oc1ccc(-n2nc3n(c2=O)[C@@H](c2ccccc2)CC3)cc1F` (single isomer, unassigned) [Example 4], the pIC50 under setting [1] is over 7.00.

Regarding `N#Cc1cc(Oc2ccc(-n3ncn(Cc4c(F)cccc4F)c3=O)cc2F)c(F)cn1` [Example 402, 4-(4-(4-(2,6-difluorobenzyl)-5-oxo-4,5-dihydro-1H-1,2,4-triazol-1-yl)-2-fluorophenoxy)-5-fluoropicolinonitrile], the pIC50 under setting [3] is over 7.00.

On to `Cn1ncn(Cc2ccc(-n3ncn(Cc4c(F)cccc4F)c3=O)cc2)c1=O` [Example 479, 4-(2,6-difluorobenzyl)-2-(4-((1-methyl-5-oxo-1,5-dihydro-4H-1,2,4-triazol-4-yl)methyl)phenyl)-2,4-dihydro-3H-1,2,4-triazol-3-one], for which, under setting [3], the pIC50 was 5.00 to 6.00.

For the molecule `C[C@H]1[C@@H](O)CN1c1cc(Oc2ccc(-n3nc4n(c3=O)[C@H](c3ccccc3)CC4)cc2F)c(F)cn1` (single isomer, unassigned) [Example 258], the pIC50 under setting [3] was over 7.00.

With `C[C@H]1C[C@H](N)CN1c1cc(Oc2ccc(-n3ncn(Cc4c(F)cccc4F)c3=O)cc2)ccn1` [Example 316, 2-(4-((2-((2S,4S)-4-amino-2-methylpyrrolidin-1-yl)pyridin-4-yl)oxy)phenyl)-4-(2,6-difluorobenzyl)-2,4-dihydro-3H-1,2,4-triazol-3-one], the pIC50 under setting [3] is over 7.00.

`Cc1nc(C(N)=O)sc1Oc1ccc(-n2nc3n(c2=O)[C@H](c2ccccc2F)C[C@@H]3F)cc1F` (single isomer, unassigned) [Example 698]: the pIC50 under setting [1] was over 7.00.

Regarding `Cc1ncsc1Oc1ccc(-n2ncn(Cc3cc(Cl)ccn3)c2=O)cc1F` [Example 9, 4-((4-chloropyridin-2-yl)methyl)-2-(3-fluoro-4-((4-methylthiazol-5-yl)oxy)phenyl)-2,4-dihydro-3H-1,2,4-triazol-3-one], the pIC50 under setting [1] was 6.00 to 7.00.

Take `Cc1nc(C(C)(C)O)sc1Oc1ccc(-n2ncn(Cc3cc(Cl)ccn3)c2=O)cc1F` [Example 471, 4-((4-chloropyridin-2-yl)methyl)-2-(3-fluoro-4-((2-(2-hydroxypropan-2-yl)-4-methylthiazol-5-yl)oxy)phenyl)-2,4-dihydro-3H-1,2,4-triazol-3-one]: the pIC50 under setting [3] was 5.00 to 6.00.

Consider `CCOC1CN(c2nccc(Oc3ccc(-n4ncn(Cc5c(F)cccc5F)c4=O)cc3)c2C)C1` [Example 236, 4-(2,6-difluorobenzyl)-2-(4-((2-(3-ethoxyazetidin-1-yl)-3-methylpyridin-4-yl)oxy)phenyl)-2,4-dihydro-3H-1,2,4-triazol-3-one], for which the pIC50 under setting [3] was over 7.00.

Consider `C[C@H]1CCCN1c1cc(Oc2ccc(-n3ncn(Cc4c(F)cccc4F)c3=O)cc2)ccn1` [Example 268, (S)-4-(2,6-difluorobenzyl)-2-(4-((2-(2-methylpyrrolidin-1-yl)pyridin-4-yl)oxy)phenyl)-2,4-dihydro-3H-1,2,4-triazol-3-one], for which the pIC50 under setting [3] was over 7.00.

As for `CCOC1(C)CN(c2nccc(Oc3ccc(-n4ncn(Cc5c(F)cccc5Cl)c4=O)cc3)c2F)C1` [Example 488, 4-(2-chloro-6-fluorobenzyl)-2-(4-((2-(3-ethoxy-3-methylazetidin-1-yl)-3-fluoropyridin-4-yl)oxy)phenyl)-2,4-dihydro-3H-1,2,4-triazol-3-one], under setting [4], the pIC50 was over 7.00.

As for `O=c1c(Br)cccn1Cc1ccc(-n2ncn(Cc3c(F)cccc3F)c2=O)cc1` [Example 211, 3-bromo-1-(4-(4-(2,6-difluorobenzyl)-5-oxo-4,5-dihydro-1H-1,2,4-triazol-1-yl)benzyl)pyridin-2(1H)-one], the pIC50 under setting [4] was 6.00 to 7.00.

As to `Cc1nc(C(=O)NC2COC2)sc1Oc1ccc(-n2nc3n(c2=O)[C@H](c2ccccc2)CC3)cc1F` [Example 21, (S)-5-(2-fluoro-4-(3-oxo-5-phenyl-6,7-dihydro-3H-pyrrolo[2,1-c][1,2,4]triazol-2(5H)-yl)phenoxy)-4-methyl-N-(oxetan-3-yl)thiazole-2-carboxamide], the pIC50 under setting [1] is over 7.00.
